The record followed here is patent publication US8871758B2, “Tetrasubstituted oxathiazine derivatives, method for producing them, their use as medicine and drug containing said derivatives and the use thereof” (Sanofi, priority 2011, dated 2014).

One may read the IC50 as the concentration needed to halve the response being measured.

The experiment has as its target T1, human 11β-HSD1 (Homo sapiens, UniProt P28845).
T1 construct: host or cells: microsome fraction
The experiment can be described thus: Enzymatic 11beta-HSD1 test (SPA-based detection). It counts as biochemical. Particulars: human 11β-HSD1 microsome fraction, [1,2-3H]-cortisone substrate, NADPH, 37° C. 1 hour, read-out: IC50 (nM), Biological activity in nanomolar. The method, then: Enzymatic 11beta-HSD1 Test:
First of all, 20 μl of the human 11β-HSD1 microsome fraction (0.2 μg of protein), prepared in 50 mM HEPES, 0.1% BSA (w/v), were applied to a plate with 384 wells. The test compounds (0.09 μl) were applied to the assay plate in 100% DMSO. The reaction was started by addition of 20 μl of [1,2-^3H]-cortisone (0.1 μCi/[…]) in assay buffer comprising 25 mM HEPES, 100 mM KCl, 5 mM NaCl, 2 mM MgCl2 and 0.25 mM NADPH. The plate was agitated at 37° C. for 1 hour. At the same time, a stop solution comprising 20 mg/ml SPA-PVT beads, 1.6 mg/ml monoclonal cortisol antibody and 0.01 mM SSR110887 (inhibitor from the Biovitrium patent) in 50 mM HEPES, 1 M NaCl and 1 M KCl was stirred at room temperature. To stop the reaction, 25 μl of the stop solution were added to each well. The plate was agitated gently at room temperature for 1 further hour and then centrifuged at 500 gav for 1 min, in order that the SPA beads could settle out. […] The comparative compound was glycyrrhetinic acid.
Protein and radioactive substrate were dispensed with a Biomek FX unit (Beckman Coulter) for handling liquids. The test compounds were added with a Cybi-Well equipped with a 90 n1 pin tool (CyBio).
Lit.: Solly S, Mundt S S, Zokian H J, Juy-Fang Ding G, Hermanowski-Vosatka A, Strulovici B and Zheng W. High-throughput screening of 11β-Hydroxysteroid dehydrogenase type 1 in scintillation proximity format.

T1 sequence (P28845 whole entry): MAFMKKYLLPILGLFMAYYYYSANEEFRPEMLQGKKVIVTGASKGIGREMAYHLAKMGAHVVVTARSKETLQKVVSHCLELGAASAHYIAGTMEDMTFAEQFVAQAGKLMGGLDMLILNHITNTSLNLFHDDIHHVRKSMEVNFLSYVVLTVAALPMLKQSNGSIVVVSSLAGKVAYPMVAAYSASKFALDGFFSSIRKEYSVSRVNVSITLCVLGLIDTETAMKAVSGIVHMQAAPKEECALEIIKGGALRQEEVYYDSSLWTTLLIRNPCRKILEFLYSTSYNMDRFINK

For `CC1(C)OC(N[C@@H](CCO)c2ccccc2)=NS(=O)(=O)C12CC2` [Example 5, (S)-3-(8,8-Dimethyl-4,4-dioxo-7-oxa-4lambda6-thia-5-aza-spiro[2.5]oct-5-en-6-ylamino)-3-phenyl-propan-1-ol], the IC50 was determined as 37 nM.

Consider `CC1(C)OC(NC23CCC(CC2)CC3)=NS(=O)(=O)C1(C)C` [Example 15, Bicyclo[2.2.2]oct-1-yl-(5,5,6,6-tetramethyl-4,4-dioxo-5,6-dihydro-4H-4lambda6-[1,4,3]oxathiazin-2-yl)-amine], for which the concentration for half-maximal inhibition (IC50) was found to be 4 nM.

`CC1(C)OC(N[C@H]2CCC[C@H](O)C2)=NS(=O)(=O)C1(C)C` [Example 18, (1S,3S)-3-(5,5,6,6-Tetramethyl-4,4-dioxo-5,6-dihydro-4H-4lambda6-[1,4,3]oxathiazin-2-ylamino)-cyclohexanol]: the IC50 was found to be 560 nM. With `CC1(C)OC(NC23CCC(F)(CC2)CC3)=NS(=O)(=O)C12CC2` [Example 8, (8,8-Dimethyl-4,4-dioxo-7-oxa-4lambda6-thia-5-aza-spiro[2.5]oct-5-en-6-yl)-(4-fluoro-bicyclo[2.2.2]oct-1-yl)-amine], the 50% inhibitory concentration (IC50) turned out to be 22 nM. In the case of `C[C@H](NC1=NS(=O)(=O)C(C)(C)C(C)(C)O1)c1ccccc1F` [Example 21, [(S)-1-(2-Fluoro-phenyl)-ethyl]-(5,5,6,6-tetramethyl-4,4-dioxo-5,6-dihydro-4H-4lambda6-[1,4,3]oxathiazin-2-yl)-amine] it was 5 nM; in that of `CC1(C)OC(NC23CCC(F)(CC2)CC3)=NS(=O)(=O)C1(C)C` [Example 9, (4-Fluoro-bicyclo[2.2.2]oct-1-yl)-(5,5,6,6-tetramethyl-4,4-dioxo-5,6-dihydro-4H-4lambda6-[1,4,3]oxathiazin-2-yl)-amine], 4 nM. In the case of `CC1(C)OC(N[C@@H]2CCC[C@@H](O)C2)=NS(=O)(=O)C1(C)C` [Example 25, (1R,3R)-3-(5,5,6,6-Tetramethyl-4,4-dioxo-5,6-dihydro-4H-4lambda6-[1,4,3]oxathiazin-2-ylamino)-cyclohexanol] it was 289 nM; in that of `COCC1(C)OC(NC2CCCCC2)=NS(=O)(=O)C12CC2` (stereo not shown) [Example 4, Cyclohexyl-(8-methoxymethyl-8-methyl-4,4-dioxo-7-oxa-4lambda6-thia-5-aza-spiro[2.5]oct-5-en-6-yl)-amine], 462 nM; in that of `CC1(C(F)(F)F)OC(NC2CCCCC2)=NS(=O)(=O)C12CC2` (stereo not shown) [Example 13, Cyclohexyl-(8-methyl-4,4-dioxo-8-trifluoromethyl-7-oxa-4lambda6-thia-5-aza-spiro[2.5]oct-5-en-6-yl)-amine], 19 nM. With `CC(C)(O)C[C@H](NC1=NS(=O)(=O)C(C)(C)C(C)(C)O1)c1cccnc1` [Example 16, (S)-2-Methyl-4-pyridin-3-yl-4-(5,5,6,6-tetramethyl-4,4-dioxo-5,6-dihydro-4H-4lambda6-[1,4,3]oxathiazin-2-ylamino)-butan-2-ol], the IC50 stood at 586 nM. In the case of `CC1(CO)OC(NC2CCCCC2)=NS(=O)(=O)C12CC2` (stereo not shown) [Example 7, (6-Cyclohexylamino-8-methyl-4,4-dioxo-7-oxa-4lambda6-thia-5-aza-spiro[2.5]oct-5-en-8-yl)-methanol] it was 786 nM; in that of `CC1(COCc2ccccc2)OC(NC2CCCCC2)=NS(=O)(=O)C12CC2` (stereo not shown) [Example 6, (8-Benzyloxymethyl-8-methyl-4,4-dioxo-7-oxa-4lambda6-thia-5-aza-spiro[2.5]oct-5-en-6-yl)-cyclohexyl-amine], 73 nM. Under `CC1(C)OC(N[C@@H](CS(N)(=O)=O)c2ccc(F)cc2)=NS(=O)(=O)C1(C)C` (single isomer, unassigned) [Example 14] stands 10 nM.
